Experimental data reported in patent US20050159359A1, “Methods and compositions for derepression of IAP-inhibited caspase” (The Burnham Institute, priority 2001, published 2005).
Where no end group is shown, it is not given here. [ ]: non-standard residue; d: D form. The star is where a group is joined. Phe(4-Cl) = N[C@@H](Cc1ccc(Cl)cc1)C(=O)O; dPhe(4-Cl) = N[C@H](Cc1ccc(Cl)cc1)C(=O)O; dPhe(4-F) = N[C@H](Cc1ccc(F)cc1)C(=O)O; 2Nal = N[C@@H](Cc1ccc2ccccc2c1)C(=O)O; d2Nal = N[C@H](Cc1ccc2ccccc2c1)C(=O)O; Fmoc = O=C(OCC1c2ccccc2-c2ccccc21)*; 2Thi = N[C@@H](Cc1cccs1)C(=O)O

Legend:
XIAP-inhibited caspase-3 = XIAP-inhibited caspase-3 (Homo sapiens, UniProt P98170); assay: IAP derepression assay: Ac-DEVD-AFC hydrolysis by caspase-3 in presence of GST-XIAP; assay type: biochemical; conditions: tested at 0.4, 2, 10 and 50 micrograms per milliliter
Description: Caspase activity was assayed by release of −7-amino-4-trifluoromethyl-coumarin (AFC) from Ac-DEVD-AFC synthetic peptides using a Molecular Devices Spectromax 340 (see Zhou et al., J. Biol. Chem. 272: 7797-7800 (1997)). […] The ratio of Vmax for hydrolysis of Ac-DEVD-AFC in the presence and absence of the candidate mixture was calculated and used to identify those that contain an agent that derepresses an IAP-inhibited caspase.
Screening of each mixture from the DCR390, TPI1239 or TPI1328 library, respectively, using the above described assay was carried out as follows. Each mixture was aliquoted in a 25 microliter volume and in duplicate to a well of a 96 well microtiter plate. […] Fluorescence of liberated AFC was immediately detected from each well for 30 minutes at 30 second intervals. The Vmax for hydrolysis of AC-DEVD-AFC from each well was measured using the softmax software package.

[1] = system: U937 leukemia cells (U937-Neo, U937-XIAP); assay: Apoptosis in U937 cells transfected with Neo-control or XIAP plasmid; assay type: cell-based; conditions: U937-XIAP vs U937-Neo, 5 or 8 μM, 20 hours
Description: After incubation, cells were washed, stained with FITC-conjugated Annexin V antibody and propidium iodide, and fluorescence measured by flow cytometry as described in Example X.

full length XIAP = full length XIAP (Homo sapiens, UniProt P98170); assay: SMAC competition assay: rhodamine labeled SMAC tetrapeptide AVPI and full length XIAP; conditions: for EC50: amount of compound necessary to restore Caspase-3 activity to 50% of Vmax; for Relative Potency: fold relative to SMAC AVPI tetrapeptide
HeLa cells = assay: Apoptosis in HeLa cells transfected with XIAP, XIAP mutants or Bcl-XL, Annexin V; assay type: cell-based; conditions: 5 μM, 20 hours
Description: In addition to transfecting the cells with full-length XIAP, analogous assays were performed with HeLa cells transfected with plasmids over-expressing various XIAP mutants. […] The mutant was produced by site-directed mutagenesis to modify positions 148, 219, 223, 314 and 323 to contain alanine. HeLa cells were also transiently transfected with plasmids encoding Bcl-XL, an anti-apoptotic protein that operates upstream of Caspases to suppress Cytochrome C release from mitochondria. HeLa cells (2.5×10^5) were seeded onto six well plates in 2 mL DMEM H21 with 5% FBS. After 24 hrs, cells were transfected (Gene Porter) with plasmids. At 48 hrs after transfection, cells were treated with 5 μM of TPI1396-34 for 20 hours. Both floating and adherent cells were then recovered from cultures, washed, and apoptosis was determined by Annexin V staining using flow cytometry.

[2] = system: normal bone marrow mononuclear cells; assay: Toxicity to normal bone marrow mononuclear cells, Annexin V flow cytometry; assay type: cell-based; conditions: same culture conditions as Jurkat killing; 5 μM, 20 hours
Description: A comparison of the effects of TPI1396-34 on normal bone marrow cells versus Jurkat leukemia cells was performed as follows. TPI1396-34 (5 μM) was incubated with Jurkat cells or normal bone marrow mononuclear cells (6.25×10^5/mL) in RPMI and 2.5% FBS for 20 hours. After incubation, cells were washed, stained with FITC-conjugated Annexin V antibody and propidium iodide, and fluorescence measured by flow cytometry as described above.

[3] = Jurkat cell killing, Annexin V / propidium iodide flow cytometry; assay type: cell-based; conditions: human
Description: The following assay was used to test the ability of individual compounds from the TPI1396 and TPI1391 libraries to induce apoptosis of cultured tumor cell lines. Each of the compounds listed in Table IX was individually added to Jurkat leukemia cells (6.25×10^5 cells/mL) in RPMI containing 2.5% FBS at various concentrations for 20 hours. After incubation, cells were washed and stained with FITC-conjugated Annexin V antibody and propidium iodide (Biovision; Mountain View, Calif.). Cells were incubated for 20 minutes at room temperature in the dark and fluorescence was measured by flow cytometry (FACScan, Immunocytometry system; Becton-Dickinson; San Jose, Calif.). Cells staining positive for Annexin V were deemed non-viable.
The TPI1396-34 and TPI1391-28 compounds were further tested as set forth below.

[4] = system: ALVA31 prostate cancer cells; assay: ALVA31 cell viability (XTT dye-reduction and trypan blue dye exclusion); assay type: cell-based; conditions: IAP antagonist 40 μM or VP-16 100 μM, 24 hrs
Description: The in vivo effects of TPI792-33 or TPI792-35, either individually or in combination with the cytotoxic anticancer drug VP-16 (etoposide), on derepression of XIAP-inhibited caspase and viability of ALVA31 cells was determined as follows. ALVA31 prostate cancer cells were seeded onto 96 well plates (10^4 cells/well) in 100 μL RPMI containing 2.5% fetal bovine serum (FBS). […] After another 24 hrs incubation, cell viability was measured by the XTT dye-reduction assay (Roche, Molecular Biochemicals; Indianapolis, Ind.) and trypan blue dye exclusion assay.

caspase-3 and -7 = conditions: read-out: Ki for inhibition of caspase-3 and -7; reported; cited from earlier work

Sequence of full length XIAP (P98170 whole entry): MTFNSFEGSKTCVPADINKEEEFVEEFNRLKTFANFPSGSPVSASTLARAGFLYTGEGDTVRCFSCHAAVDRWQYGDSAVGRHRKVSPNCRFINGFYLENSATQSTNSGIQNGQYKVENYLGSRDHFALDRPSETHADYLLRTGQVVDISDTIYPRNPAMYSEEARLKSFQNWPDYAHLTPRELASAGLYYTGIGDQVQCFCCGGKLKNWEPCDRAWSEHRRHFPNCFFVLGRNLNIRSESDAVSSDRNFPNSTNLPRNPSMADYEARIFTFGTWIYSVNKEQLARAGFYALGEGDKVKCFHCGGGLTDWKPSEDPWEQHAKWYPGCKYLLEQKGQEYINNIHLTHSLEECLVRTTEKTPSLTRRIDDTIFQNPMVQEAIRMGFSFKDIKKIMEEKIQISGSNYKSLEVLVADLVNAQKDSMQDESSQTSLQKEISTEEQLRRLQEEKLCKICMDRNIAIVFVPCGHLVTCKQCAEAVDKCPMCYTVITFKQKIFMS
Sequence of XIAP-inhibited caspase-3 (P98170 whole entry): as above

Compound: (L-ThiAla)-(Lys-εFmoc)-(D-Nal)-(Lys-εFmoc) ([2Thi]K(Fmoc)[d2Nal]K(Fmoc)) [TPI792-19]
- LC (lowest concentration with a ratio of 2 or higher in the derepression assay) (XIAP-inhibited caspase-3): 2 µg/mL

Compound: (D-Nal)-(Lys-εFmoc)-(L-pClPhe)-(Lys-εFmoc) ([d2Nal]K(Fmoc)[Phe(4-Cl)]K(Fmoc); not fully specified; printed as (D-Nal)-(Lys-εFmoc)-(L-pClPhe)-(Lys-εFmoc)) [TPI792-3]
- LC (lowest concentration with a ratio of 2 or higher in the derepression assay) (XIAP-inhibited caspase-3): 2 µg/mL

Compound: COc1ccc(CCN2CCC[C@@H]2CN(C(=O)Nc2ccccc2)[C@@H](CNC(=O)Nc2ccccc2)CC2CCCCC2)cc1 [TPI1396-34]
- effect of XIAP over-expression on apoptosis induction [1]: resistant
- EC50 (full length XIAP): 33 µM
- apoptosis (HeLa cells; HeLa expressing XIAP mutant with mutated SMAC-binding pocket): not protected
- apoptosis (HeLa cells; HeLa expressing mutant of only the BIR2 domain): not protected
- apoptosis (HeLa cells; HeLa expressing the BIR3 domain): protected
- apoptosis (HeLa cells; HeLa over-expressing Bcl-XL): not blocked
- apoptosis (HeLa cells; HeLa over-expressing full-length XIAP): protected
- apoptosis (HeLa cells; HeLa transfected with control vector): induced apoptosis
- toxicity to normal bone marrow cells [2]: little toxicity

Compound: (D-Nal)-(L-Nal)-(D-Lys-εFmoc)-(Lys-εFmoc) ([d2Nal][2Nal][dK](Fmoc)K(Fmoc)) [TPI792-17]
- LC (lowest concentration with a ratio of 2 or higher in the derepression assay) (XIAP-inhibited caspase-3): 2 µg/mL

Compound: CC(C)C[C@@H]1CN([C@H](CNCc2ccccc2)Cc2ccc3ccccc3c2)C(=O)C(=O)N1CCc1cccc(C(F)(F)F)c1 [TPI1391-28]
- Relative Potency (full length XIAP): 4.8
- toxicity to normal bone marrow cells [2]: little toxicity

Compound: (D-Nal)-(D-pClPhe)-(L-pClPhe)-(Lys-εFmoc) ([d2Nal][dPhe(4-Cl)][Phe(4-Cl)]K(Fmoc)) [TPI792-9]
- LC (lowest concentration with a ratio of 2 or higher in the derepression assay) (XIAP-inhibited caspase-3): 10 µg/mL

Compound: H-AVPIAQK-NH2 [SMAC, H-Ala-Val-Pro-Ile-Ala-Gln-Lys-NH2]
- percent nonviable cells at 20 hours, 50 µM ([3]; 50 μM): ~16%
- percent nonviable cells at 20 hours, 100 µM ([3]; 100 μM): 15%

Compound: (D-Nal)-(L-Nal)-(L-pClPhe)-(Lys-εFmoc) ([d2Nal][2Nal][Phe(4-Cl)]K(Fmoc); also: 4: D-Lys-εFmoc in Table V) [TPI792-15]
- LC (lowest concentration with a ratio of 2 or higher in the derepression assay) (XIAP-inhibited caspase-3): 2 µg/mL

Compound: CCCCCCCN1C(=O)C(=O)N([C@H](CCCC)CNCc2ccccc2)C[C@@H]1Cc1ccc2ccccc2c1 [TPI1391-21]
- EC50 (full length XIAP): 37 µM
- Relative Potency (full length XIAP): 3.4

Compound: (L-ThiAla)-(Lys-εFmoc)-(L-pClPhe)-(pF-D-F) ([2Thi]K(Fmoc)[Phe(4-Cl)][dPhe(4-F)]) [TPI792-22]
- LC (lowest concentration with a ratio of 2 or higher in the derepression assay) (XIAP-inhibited caspase-3): 2 µg/mL

Compound: COc1cc([C@@H]2c3cc4c(cc3[C@@H](O[C@@H]3O[C@@H]5CO[C@@H](C)O[C@H]5[C@H](O)[C@H]3O)[C@H]3COC(=O)[C@H]23)OCO4)cc(OC)c1O [VP-16, etoposide]
- effect on viability of ALVA31 cells, agent alone [4]: essentially no effect

Compound: (L-ThiAla)-(D-pClPhe)-(L-pClPhe)-(Lys-εFmoc) ([2Thi][dPhe(4-Cl)][Phe(4-Cl)]K(Fmoc)) [TPI792-27]
- LC (lowest concentration with a ratio of 2 or higher in the derepression assay) (XIAP-inhibited caspase-3): 2 µg/mL

Compound: cIAP2: cellular IAP protein, human inhibitor of apoptosis protein
- Ki (caspase-3 and -7): 0.0002 to 0.01 µM
